Experimental data published in patent publication US20070197657A1, “Method for treating non-inflammatory musculoskeletal pain” (SRZ Properties, Inc., priority 2005, published 2007).
“Also recorded” adds a separate entry of the source.

Experiments:
[1] = test system: monosodium iodoacetate-induced tactile allodynia; assay: monosodium iodoacetate-induced tactile allodynia (von Frey filaments); type: in vivo, rat
[2] = test system: monosodium iodoacetate-induced mechanical hyperalgesia; assay: monosodium iodoacetate-induced mechanical hyperalgesia (Randall-Selitto paw pressure); type: in vivo, rat; details: for mechanical hyperalgesia (paw pressure withdrawal threshold) compared to iodoacetate/vehicle treated animals: day 3; for mechanical hyperalgesia (paw pressure withdrawal threshold): day 7
[3] = test system: formalin-induced flinching and licking of the affected paw; assay: rat formalin paw test (late phase); type: in vivo
Protocol: Rats were given an intraplantar injection of 5% formalin (50 μl) into the posterior left paw. This treatment induces a recognizable flinching and licking response of the affected paw in control animals. The number of flinches was counted for 15 minutes, beginning 20 minutes after injection of formalin. The time spent licking the affected paw was also recorded.
Male Rj: Wistar (Han) rats, 10 per group, weighing 100-130 g at the beginning of the experiments were studied per group. The test was performed blind.
Lacosamide (20 mg/kg), gabapentin (50 and 100 mg/kg), combinations of lacosamide (20 mg/kg) with gabapentin (50 and 100 mg/kg), and vehicle were administered i.p. 10 minutes before injection of formalin.
Lacosamide (10 and 20 mg/kg), morphine (2 and 4 mg/kg), combinations of lacosamide (10 and 20 mg/kg) with morphine (2 and 4 mg/kg), and vehicle were administered i.p. 10 minutes before injection of formalin.
Lacosamide (10 mg/kg), duloxetine (8 mg/kg), a combination of lacosamide (10 mg/kg) with duloxetine (8 mg/kg), and vehicle were administered i.p. 10 minutes before injection of formalin.
Lacosamide (10 and 20 mg/kg), memantine (4 and 8 mg/kg), combinations of lacosamide (10 and 20 mg/kg) with memantine (4 and 8 mg/kg), and vehicle were administered i.p. 10 minutes before injection of formalin.
Lacosamide (10 and 20 mg/kg), naproxen (8 and 16 mg/kg), combinations of lacosamide (10 and 20 mg/kg) with […] (8 and 16 mg/kg), and vehicle were administered i.p. 10 minutes before injection of formalin. Morphine (8 mg/kg) was included as a comparative treatment.

[4] = test system: TNF-induced reduction of grip strength; assay: biceps muscle grip strength after TNF-induced muscle pain; type: in vivo, rat; details: for reversal of TNF-induced reduction of grip strength: TNF 1 μg i.m. biceps brachii
Description: (§1) The model used in this example is applicable to musculoskeletal pain which occurs in fibromyalgia, myofascial pain syndrome or back pain. For comparative purposes, the non-opioid analgesic dipyrone (metamizol) and the anticonvulsants pregabalin and gabapentin were included in the study.
(§2) Adult male Sprague Dawley rats with a body weight of 250 g to 300 g were used (supplier: Charles River, Sulzfeld, Germany). Animals were group-housed (3 animals per cage) and maintained in a room with controlled temperature (21-22° C.) and a reversed light-dark cycle (12 h/12 h) with food and water available ad libitum. All experiments were approved by the Bavarian State animal experimentation committee and carried out in accordance with its regulations.
(§3) Recombinant rat tumor necrosis factor alpha (herein referred to as TNF) was obtained from R&D Systems, Minneapolis, Minn., U.S.A. TNF was diluted in 0.9% NaCl and used in a concentration of 1 μg in 50 μl. Injections were performed in short halothane narcosis with a 30 g needle bilaterally into the gastrocnemius or into the biceps brachii muscle. All rats were used to the behavioral tests before injections and baseline values were recorded over three test days.
Grip strength of the forelimbs was tested with a digital grip force meter (DFIS series, Chatillon, Greensboro, N.C., U.S.A.). The rat was positioned to grab the grid with the forelimbs and was gently pulled so that the grip strength could be recorded. Means of three trials were calculated. The effect of the TNF treatment was calculated for each animal separately and only animals with a significant TNF effect were included for further analysis.
Rats were injected with TNF into the biceps brachii muscle at 8 am. Six hours later, grip strength of the forelimbs was tested with a digital grip force meter. Test drug was administered, and grip strength was again tested after 30 to 60 minutes.
(§4) The rats, initially 10 per group, were treated with either 3, 10 or 30 mg/kg lacosamide, 2 mg/kg metamizol, 30 or 100 mg/kg pregabalin, 100 mg/kg gabapentin, or the NaCl vehicle, i.p. (intraperitoneally). Volume of i.p. injections was 0.5 ml. A pilot study was performed to confirm that i.m. (intramuscular) injection of 1 μg TNF into the gastrocnemius muscle was sufficient to induce pressure hyperalgesia.
(§5) Data are shown in graphs displaying means and standard errors of the means (SEM). Pre- and post-treatment data were compared using ANOVA (analysis of variance) and a Tukey post hoc test. Means of treatment groups were compared using a one-way ANOVA and Dunnett's post hoc test. Maximal possible effects (MPE) were calculated for all types of treatment.

[5] = test system: muscle pressure hyperalgesia induced by TNF; assay: TNF-induced muscle pressure hyperalgesia (Randall-Selitto, gastrocnemius muscle); type: in vivo, rat; details: for reversal of muscular mechanical hyperalgesia (withdrawal threshold to muscle pressure): TNF 1 μg i.m. gastrocnemius; for full reversal of the muscle hyperalgesia: doses tested (pregabalin 30, 100 mg/kg; gabapentin 100 mg/kg i.p.)
Description: as §1, §2, §3
Mechanical withdrawal thresholds to muscle pressure were measured with an analgesimeter (Ugo Basile, Comerio, Italy). The rat was allowed to crawl into a sock which helps the rat to relax. The hind limbs were positioned such that an increasing pressure could be applied onto the gastrocnemius muscle (maximum 250 g). The pressure needed to elicit withdrawal was recorded. Means of 3 trials for each hind limb were calculated (interstimulus interval of >30 sec). Only animals with a significant TNF effect were included for further analysis.
Rats were injected with TNF into the gastrocnemius muscle at 2 pm. Eighteen hours later, rats were tested for pressure hyperalgesia pre- and post-administration of the test drug. Rats were tested for pressure hyperalgesia 30 to 60 minutes after drug administration.
as §4, §5

[6] = Example 5, duloxetine 8 mg/kg i.p.
[7] = Example 3, gabapentin 50 mg/kg i.p.
[8] = Example 3, gabapentin 100 mg/kg i.p.
[9] = Example 4, morphine 2 mg/kg i.p.
[10] = Example 4, morphine 4 mg/kg i.p.
[11] = Example 7, morphine 8 mg/kg i.p.
[12] = 3 mg/kg (lacosamide p.o., morphine s.c.)

O=C(O)Cc1ccccc1Nc1c(Cl)cccc1Cl [Diclofenac, diclofenac]
tactile allodynia of iodoacetate-treated rats ([1]; day 3, 30 mg/kg (lacosamide p.o., diclofenac s.c.)): no effect
tactile allodynia of iodoacetate-treated rats ([1]; day 7, 30 mg/kg (lacosamide p.o., diclofenac s.c.)): no effect
tactile allodynia of iodoacetate-treated rats ([1]; day 14, 30 mg/kg (lacosamide p.o., diclofenac s.c.)): no effect
mechanical hyperalgesia (paw pressure withdrawal threshold) compared to iodoacetate/vehicle treated animals ([2]; 30 mg/kg s.c.): increase in paw pressure withdrawal threshold
mechanical hyperalgesia (paw pressure withdrawal threshold) ([2]; 30 mg/kg (lacosamide p.o., diclofenac s.c.)): reduced mechanical hyperalgesia

CNCC[C@H](Oc1cccc2ccccc12)c1cccs1 [Duloxetine, duloxetine, reference compound]
Licking time % change (a): compared with vehicle control [3, 6]: −26%
Licking time (seconds) mean ± SEM [3, 6]: 195.5 ± 45.0 s
No. of flinches % change (a): compared with vehicle control [3, 6]: −1%
No. of flinches mean ± SEM [3, 6]: 149.6 ± 27.3
effects on number of flinches and time spent licking [3, 6]: no clear effects

NCC1(CC(=O)O)CCCCC1 [Gabapentin, gabapentin, reference compound]
MPE (maximal possible effect) on biceps muscle grip strength, versus vehicle ([4]; 100 mg/kg i.p.): significantly different from vehicle
reversal of TNF-induced reduction of grip strength ([4]; 100 mg/kg i.p., 100 mg/kg): significant reversal; also recorded: improved grip strength
MPE (maximal possible effect) on muscle pressure hyperalgesia, versus vehicle ([5]; 100 mg/kg i.p.): significantly different from vehicle
reversal of muscular mechanical hyperalgesia (withdrawal threshold to muscle pressure) ([5]; 100 mg/kg i.p.): significant reversal
full reversal of the muscle hyperalgesia [5]: Neither pregabalin nor gabapentin led to a full reversal
Licking time % change (a): compared with vehicle control [3, 7]: −28%
Licking time (seconds) mean ± SEM [3, 7]: 161.0 ± 27.3 s
No. of flinches % change (a): compared with vehicle control [3, 7]: −24%
No. of flinches mean ± SEM [3, 7]: 97.4 ± 23.8
decrease in the number of flinches as compared with vehicle controls [3, 7]: 24%
decrease in the time spent licking as compared with vehicle controls [3, 7]: 28%
Licking time % change (a): compared with vehicle control [3, 8]: −60%
Licking time (seconds) mean ± SEM [3, 8]: 90.0 ± 22.5 s
No. of flinches % change (a): compared with vehicle control [3, 8]: −31%
No. of flinches mean ± SEM [3, 8]: 88.1 ± 19.4
decrease in the number of flinches as compared with vehicle controls [3, 8]: 31%
decrease in the time spent licking as compared with vehicle controls [3, 8]: 60%

CC12CC3CC(C)(C1)CC(N)(C3)C2 [Memantine, memantine, reference compound]
effect on the number of flinches as compared with vehicle controls ([3]; Example 6, memantine 4 and 8 mg/kg i.p.): did not clearly affect

CN1CC[C@]23c4c5ccc(O)c4O[C@H]2[C@@H](O)C=C[C@H]3[C@H]1C5 [Morphine, morphine, reference compound]
tactile allodynia of iodoacetate-treated rats ([1]; day 3, 3 mg/kg s.c.): improved
tactile allodynia of iodoacetate-treated rats ([1]; day 7, 3 mg/kg s.c.): improved
tactile allodynia of iodoacetate-treated rats ([1]; day 14, 3 mg/kg s.c.): not on day 14
Licking time % change (a): compared with vehicle control [3, 9]: −1%
Licking time (seconds) mean ± SEM [3, 9]: 289.3 ± 30.7 s
No. of flinches % change (a): compared with vehicle control [3, 9]: −7%
No. of flinches mean ± SEM [3, 9]: 139.5 ± 25.3
Licking time % change (a): compared with vehicle control [3, 10]: −20%
Licking time (seconds) mean ± SEM [3, 10]: 234.9 ± 37.3 s
No. of flinches % change (a): compared with vehicle control [3, 10]: −37%
No. of flinches mean ± SEM [3, 10]: 94.3 ± 21.1
effects on the number of flinches and the time spent licking as compared with vehicle controls ([3]; Example 4, morphine 2 and 4 mg/kg i.p.): did not reach statistical significance
Licking time % change (a): compared with vehicle control [3, 11]: −100%
Licking time (seconds) mean ± SEM [3, 11]: 0.0 ± 0.0 s
No. of flinches % change (a): compared with vehicle control [3, 11]: −100%
No. of flinches mean ± SEM [3, 11]: 0.2 ± 0.1
effect on flinching and the time spent licking as compared with vehicle controls [3, 11]: eliminated
mechanical hyperalgesia (paw pressure withdrawal threshold) compared to iodoacetate/vehicle treated animals [2, 12]: increase in paw pressure withdrawal threshold
mechanical hyperalgesia (paw pressure withdrawal threshold) [2, 12]: reduced mechanical hyperalgesia

COc1ccc2cc([C@H](C)C(=O)O)ccc2c1 [Naproxen, naproxen, reference compound]
effect on the number of flinches or the time spent licking as compared with vehicle controls ([3]; Example 7, naproxen 8 and 16 mg/kg i.p.): did not clearly affect

Cc1c(N(C)CS(=O)(=O)O)c(=O)n(-c2ccccc2)n1C [metamizol]
MPE (maximal possible effect) on biceps muscle grip strength, versus vehicle ([4]; 2 mg/kg i.p.): significantly different from vehicle
reversal of TNF-induced reduction of grip strength ([4]; 2 mg/kg i.p.): significant reversal
MPE (maximal possible effect) on muscle pressure hyperalgesia, versus vehicle ([5]; 2 mg/kg i.p.): significantly different from vehicle
reversal of muscular mechanical hyperalgesia (withdrawal threshold to muscle pressure) ([5]; 2 mg/kg i.p.): complete reversal

CC(C)C[C@H](CN)CC(=O)O [pregabalin]
MPE (maximal possible effect) on biceps muscle grip strength, versus vehicle ([4]; 100 mg/kg i.p.): significantly different from vehicle
reversal of TNF-induced reduction of grip strength ([4]; 100 mg/kg i.p., 100 mg/kg): significant reversal; also recorded: improved grip strength
MPE (maximal possible effect) on muscle pressure hyperalgesia, versus vehicle ([5]; 30 mg/kg i.p.): significantly different from vehicle
MPE (maximal possible effect) on muscle pressure hyperalgesia, versus vehicle ([5]; 100 mg/kg i.p.): significantly different from vehicle
reversal of muscular mechanical hyperalgesia (withdrawal threshold to muscle pressure) ([5]; 30 mg/kg i.p.): significant reversal
reversal of muscular mechanical hyperalgesia (withdrawal threshold to muscle pressure) ([5]; 100 mg/kg i.p.): significant reversal
full reversal of the muscle hyperalgesia [5]: Neither pregabalin nor gabapentin led to a full reversal
